Data on five molecules can be found in patent publication US11179344B2, “Nanoparticle-based liver-targeting therapy” (Midatech Limited, priority 2017, dated 2021).

Data set [1] can be described thus: Tolerability (body weight change), Hep3B orthotopic xenograft model. The class given is in vivo, BALB/c nude mice. The conditions noted are these: daily oral administration for 21 days. As for the experimental part: The animals in this case were a mouse HCC model with a Hep3B orthotopic xenograft. MTC-100038, DM1, or vehicle were administered I.V. to BALB/c nude mice in 2×5 day cycles (shaded), whilst Sorafenib was administered by daily oral administration for 21 days (dashed line) at a dose of 60 mg/kg, which was the highest tolerated dose in this model. Percentage body weight change was calculated based on animal weight on the first day of dosing. Data points represent percent group mean change in body weight±SEM. Treatment groups were: Vehicle (black circles), Sorafenib 60 mg/kg (squares), free DM1 0.150 mg/kg (triangles), MTC-100038 0.225 mg/kg (green circles), MTC-100038 0.338 mg/kg (diamonds) and MTC-100038 0.450 mg/kg (inverted triangles).

Data set [2] has as its system subcutaneous BEL7404 hepatocellular cancer xenograft. Description: Anti-tumour efficacy, subcutaneous BEL7404 xenograft model. Type of data set: in vivo, NOD/SCID mice. The conditions noted are these: for T/C / Tumour size: day 13; for Tumour size: Mean ± SEM. As for the experimental part:
The in vivo anti-tumour efficacy of MTC-100038 in a subcutaneous BEL7404 hepatocellular cancer xenograft model in NOD/SCID mice was evaluated. Briefly NOD/SCID mice (18-22 g, n=10 per group) were implanted subcutaneously with BEL7404 tumour cells (3×10^6) in 0.1 ml of PBS for tumour development. Group/dosing assignment commenced when tumours reached a pre-determined volume of ˜200 mm^3 subcutaneous tumours.
Tumour size was measured twice weekly, and the volume was expressed in mm^3. The tumour size was then used for calculations of T/C values.

In data set [3] the test system is orthotopic Hep3B-Luc hepatocellular cancer xenograft. The experiment in a line: Anti-tumour efficacy, orthotopic HEP3B xenograft model (bioluminescence). The class given is in vivo, BALB/c nude mice. The settings on record: for T/C (%) / Bioluminescence: day 21; for Bioluminescence: Mean. As for the experimental part: The in vivo anti-tumour efficacy of MTC-100038 in an orthotopic hepatocellular cancer xenograft model in BALB/c nude mice was evaluated. Briefly, female BALB/c nude mice (18-23 g, n=10/group), were implanted with approximately 3×10^6 Hep3B-Luc cells mixed with BD Matrigel in 20 μL (PBS:Matrigel=1:1). Animals were selected and randomized (based on their bioluminescence density) on day 7 after tumour implantation to 6 groups using randomized block design based upon their bioluminescence.
The tumour bioluminescence was used for the calculation of T/C value (in percent), where T and C are the mean bioluminescence of the treated and control groups, respectively, on a given day. Statistical analysis of difference in bioluminescence among the groups and the analysis of drug interaction were conducted on the data obtained at the best therapeutic time point after the final dose (the 21st day after the start of treatment).
A one-way ANOVA was performed to compare bioluminescence among groups, and when a significant F-statistics (a ratio of treatment variance to the error variance) was obtained, comparisons between groups were carried out with Games-Howell test with p<0.05 statistically significant.

In a further data set the test system is Hep3B cells. The experiment in a line: In vitro cytotoxicity, Hep3B. The class given is cell-based, human. The text has this: A lower bar height indicates higher cytotoxic potency.
(§1) The cytotoxicity of gold nanoparticle constructs GalC2-PEG8COOH-GNP (parent, non-functionalised gold nanoparticle (MTC-100011)), and MTC-100038 were compared to free DM1 drug in the HCC cell lines HEPG2 and HEP3B.

The nature of data set [4]: Tolerability (body weight change), mouse model with human HCC xenograft. The conditions noted are these: I.V., five consecutive days. Type of data set: in vivo. On the procedure:
The animals in this case were a mouse model with a human HCC xenograft. Animals dosed intravenously (I.V.) for five consecutive days (shaded area left of dotted vertical line) at either a low dose of 0.15 mg/kg of DM1 alone (inverted triangles) or high dose of 0.45 mg/kg DM1 alone (diamonds) or MTC-100038 at equivalent DM1 doses low (circles) and high (squares). Percentage body weight change was calculated based on animal weight on the first day of dosing. Data points represent percent group mean change in body weight±SEM. Body weight change is positive in the MTC-100038 nanoparticle-treated animals, but negative (low dose) or fatal (high dose) in the free DM1-treated animals.

A short description of data set [5]: Pharmacokinetics and biodistribution of DM1, subcutaneous Hep3B xenograft model. The class given is in vivo, NOD/SCID mouse. The conditions noted are these: no further decline at 48 hours, dosed article not stated. As for the experimental part:
DM1 tumour concentration (mean±SEM) is shown for MTC-100038-treated (equivalent DM1 dose 0.06 mg/kg) animals (left-hand bars) and free DM1-treated animals (also 0.06 mg/kg dose) (right-hand bars). Time points are 2 hours (solid fill), 24 hours (horizontal lines) and 48 hours (checked pattern).
The in vivo pharmacokinetics and biodistribution of DM1 was studied in the subcutaneous Hep3B human hepatocellular cancer xenograft model (Table 1). The concentration of gold and DM1 in liver and kidney samples was evaluated 2, 24 and 48 hours after the last drug administration.

For data set [6], the system named is HCC cell lines HEPG2 and HEP3B. Description: Cytotoxicity of gold nanoparticle constructs vs free DM1 (text values). Type of data set: cell-based, human. The settings on record: line for the value not stated.
From the text: as §1

For the next data set, the system named is BEL7404. The experiment in a line: In vitro cytotoxicity, BEL7404. Type of data set: cell-based.
In data set [7] the test system is subcutaneous Hep3B hepatocellular cancer xenograft. Description: Anti-tumour efficacy, subcutaneous HEP3B xenograft model. The class given is in vivo, NOD/SCID mice. The conditions noted are these: 0.1125 mg/kg i.v. QD×5, day 13. As for the experimental part:
The in vivo anti-tumour efficacy of MTC-100038 in a subcutaneous Hep3B hepatocellular cancer xenograft model in NOD/SCID mice was evaluated. Briefly NOD/SCID mice (18-22 g, n=10 per group) were implanted subcutaneously with HEP 3B hepatocellular cells (3×10^6) in 0.1 mL PBS for tumour development. Group/dosing assignment commenced when tumours reached a pre-determined volume of ˜200 mm^3 subcutaneous tumours (n=10 per group). Tumour size was measured twice weekly, and the volume was expressed in mm^3. The tumour size was then used for calculations of T/C values. The T/C value (in percent) is an indication of anti-tumour effectiveness (optimally, a test article is considered to have anti-tumour activity when T/C is 50% or less); T and C are the mean volumes of the treated and control groups, respectively, on a given day.

Data set [8] concerns human hepatocellular carcinoma cell line HepG2. Description: MTT cell viability assay, Pt / doxorubicin loaded nanoparticles vs free drug. The conditions noted are these: concentration based on drug amount, FIG. 7: 72 h after treatment. As for the experimental part:
The human hepatocellular carcinoma cell line HepG2 was used in the assay.
HepG2 cells were grown in a T-75 flask. For the transfer of the cell the medium was removed from the flask and the cells were trypsinated for 5 minutes. The cells were collected in a Falcon tube and diluted with complete cell medium. The cell counting was conducted in a Neubauer chamber. A cell solution was prepared to seed 4000 cells per well (200 μL per well). The microtiter plate was incubated for 24 h at 37° C.
For each NP and drug, formulations in cell medium were prepared. The compounds were tested in different concentrations (0.01, 0.05, 0.2, 1, 5, 25 and 125 μM based on drug amount). For the treatment, the cell medium was removed from all wells and exchanged for drug formulations. 200 μl of treatments per triplicate was added to each well. The microtiter plates were incubated for 24 h, 48 h and 72 h at 37° C.
1.5 mL MTT solution (8.0 mg in 1.6 mL DMSO) was diluted with complete cell medium (phenol-red free). The treatment cell medium was removed from the microtiter plate, the wells were washed with 100 μL PBS and 100 μL of the MTT reactive solution was added to each well. After one hour incubation at 37° C. the MTT solution was removed and 100 μL DMSO was added to dissolve the formazan dye. Absorbance was measured at 570 nm.
Data were analysed using OriginPro8. The normalized data were plotted and the curve was fitted using a non-linear regression curve fit (sigmoidal dose-response curve with variable slope). The Absolute IC50 values were obtained by interpolation.

A further data set concerns HCC cells. The experiment in a line: In vitro targeting of GNPs to HCC cells (counts per field). Type of data set: cell-based. The settings on record: relative to base GNP lacking the peptide. The text has this:
(SEQ ID NO: 1), via its N-terminus (approx. 4 peptide molecules per nanoparticle).
Several base/peptide targeted GNPs were screened in vitro. GNPs having a mixed corona comprising galactose-C2-SH (Gal-C2) ligands and HSPEG8COOH were synthesised according to methodology analogous to that described above in Examples 1 and 2, with however galactose-C2-SH replacing glucose-C2-SH and HSPEG8COOH (also abbreviated SH-EG8-COOH or SH—(OCH2CH2)8—COOH) replacing the amino linker NH2-EG6-SH.
The glypican-3 peptide described in U.S. Pat. No. 8,388,937B2 (the contents of which are expressly incorporated herein by reference)—see SEQ ID NO: 1 thereof, which has the amino acid sequence: […] (SEQ ID NO: 1) was linked to the terminal COOH group of a proportion of the HSPEG8COOH ligands via the N-terminus of said peptide. In a “high loading” GNP construct (see row 1 in the table below), approximately 4 peptides were linked per nanoparticle core. The “high loading” Au@Gal-C2:HSPEG8COOH:HSPEG8CONH[…] The “low loading” Au@Gal-C2:HSPEG8COOH:HSPEG8CONH[…]

Setting [9] is: 0.15 mg/kg i.v. QD×5 (D0-4) + QD×5 (D8-12).

Turning to `CNC(=O)c1cc(Oc2ccc(NC(=O)Nc3ccc(Cl)c(C(F)(F)F)c3)cc2)ccn1` [Sorafenib], the highest tolerated dose in data set [1] came out at 60 mg/kg. Besides, the “anti-tumour activity compared to vehicle” value in [2] (60 mg/kg over 21 days) is on record as “significant tumour growth inhibition”. In data set [2] (60 mg/kg p.o. QD×21), this molecule returned a T/C of 41.9% and a Tumour size of 984 ± 64 mm^3. In addition, the “anti-tumour activity compared with vehicle group” value in [3] (60 mg/kg) is recorded as “significant anti-tumour activity”. In data set [3] (60 mg/kg p.o. QD×21), the “T/C (%)” value was 22.3% and the Bioluminescence is 3.24E+09 photons/s. Also, in data set [3] (60 mg/kg p.o. QD×21, listed as sorafenib), the Bioluminescence is on record as 3.24×10^9 photons/s.

For `COc1cc2cc(c1Cl)N(C)C(=O)C[C@H](OC(=O)[C@H](C)N(C)C(=O)CCS)[C@]1(C)O[C@H]1[C@H](C)[C@@H]1C[C@@](O)(NC(=O)O1)[C@H](OC)/C=C/C=C(\C)C2` [DM1, maytansinoid DM1], the half-inhibitory concentration (IC50) in the data set on Hep3B cells came to 0.011 µM; in data set [6], 0.00415 µM; with BEL7404, 0.009 µM. Also, in [2] (0.15 mg/kg), the “anti-tumour activity compared to vehicle” value is on record as “no anti-tumour activity”. Besides, the T/C in data set [2] (setting [9]) is 113.2%; in [7], 78.9%. Moreover, the Tumour size is reported as 2656 ± 180 mm^3 in [2] (setting [9]) and 1217 ± 254 mm^3 in [7] (Mean ± SEM). Further, the “body weight change, low dose” value in data set [4] (0.15 mg/kg DM1 or equivalent DM1 dose) is “negative”. In addition, in [4] (0.45 mg/kg DM1 or equivalent DM1 dose), the “body weight change, high dose” value is “fatal”. Besides, in [5], the “decline of DM1 concentration in the tumour between 2 and 24 hours” value is given as “about 40%”. Further, the “anti-tumour activity compared with vehicle group” value in data set [3] (0.15 mg/kg) is “no anti-tumour activity”. Further, in data set [3] (setting [9]), the “T/C (%)” value worked out at 83.4%. In data set [3] (setting [9]), the Bioluminescence stood at 1.21E+10 photons/s.

With platinum-(IV)-succinate, the concentration for half-maximal inhibition (IC50) in data set [8] and in data set [8] (listed as Pt(IV)-succinate) was 38.6 µM each time.

In the case of GNP-GalC2(50)-AL(50)-(Ac)YFLTTRQ, the figures for the “Fold-targeting (over base particle)” value in the data set with HCC cells and in the data set on HCC cells (listed as Au@GalC2:AL:AL-(Ac)-YFLTTRQ) were 5.0 fold and “approximately 5 fold”, respectively.

As to `COc1cccc2c1C(=O)c1c(O)c3c(c(O)c1C2=O)C[C@@](O)(C(=O)CO)C[C@@H]3O[C@H]1C[C@H](N)[C@H](O)[C@H](C)O1` [Doxorubicin, doxorubicin], in data set [8] (Homo sapiens), it took 0.06 µM to reach half-maximal inhibition (IC50).
